Measured values reported in patent publication US20250154172A1, “PRMT5 INHIBITORS AND USES THEREOF” (Gilead Sciences, Inc., priority 2023, published 2025).

Key:
[1] = test system: HCT116 MTAP-deleted cell lines; experiment: Cell viability assay for HCT116 isogenic pair (CellTitre-Glo, 7 days); assay type: cell-based; details: Homo sapiens, HCT-116, 168 h, 7 days of treatment, cell line not given
Procedure, shortened: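 HCT116 WT or MTAP-deleted cells, 100 per well, seeded onto pre-spotted PRMT5 inhibitor dose series in RPMI 1640/10% heat-inactivated FBS and grown 7 days at 37° C, 5% CO2. CellTiter-Glo luminescence then read; CC50 (nM) from 4-parameter logistic fit.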

LU99 = experiment: Cell viability assay for additional cell lines: LU99; assay type: cell-based; details: for GI50: Homo sapiens, Lu-99, 216 h, 9-day treatment, average of n=2, read-out: MTAP-Deleted GI50
Experimental: (§1) Some Compounds of the Disclosure were tested in Calu-6 (Vendor: ATCC; Cat #HTB-56; Description: lung, adenocarcinoma), LU99 (Vendor: JCRB; Cat #JCRB0080; Description: non-small cell lung cancer), SW780 (Vendor: ATCC; Cat #CRL-2169; Description: bladder urothelial carcinoma), BxPC-3 (Vendor: ATCC; Cat #CRL-1687; Description: pancreatic adenocarcinoma), Panc-1 (Vendor: ATCC; Cat #CRL-1469 Description: pancreatic adenocarcinoma), AsPC-1 (Vendor: ATCC; Cat #CRL-1682; Description: pancreatic adenocarcinoma), Calu-6 (Vendor: ATCC; Cat #HTB-56; Description: non-small cell lung cancer), and U-2 OS (Vendor: ATCC; Cat #HTB-96; Description: osteosarcoma), cellular viability assays according to the general protocol. Seeded cells into 96-well plate and incubated overnight. Seeded an additional 10 wells per cell line in an additional 96-well plate for assessing Time Zero luminescence and incubated overnight. To treatment plates, added compounds into each well using Tecan D300e dispenser (nine three-fold dilutions starting at 10 μM) and incubated for 9 days. Time Zero (no compound treatment, luminescence assessed on day 1) and 9-day treatment (luminescence assessed on day 10) plates were assessed using the same CellTiter-Glo® substrate protocol. Thawed CellTiter-Glo® Buffer and lyophilized CellTiter-Glo® substrate and equilibrated to room temperature prior to use. The DMSO concentration was normalized to 0.137%. Transferred 100 ml CellTiter-Glo® Buffer into amber bottle containing CellTiter-Glo® substrate to reconstitute the lyophilized enzyme/substrate mixture. For Time Zero and 9-day treatment plates, removed all plating media. Added 100 μl fresh media/well. Added 100 μl CellTiter-Glo® Reagent per well. Mixed contents for 10 min on an orbital shaker to lyse cells. Recorded luminescence with Perkin Elmer Envision 2105 machine. Analyzed the data with GraphPad software. Potency fold difference is defined as GI50 (AMG193)/GI50 (Ca-47) for the MTAP^del cell line of interest. The structure of AMG193 is as follows.

SW780 = experiment: Cell viability assay for additional cell lines: SW780; assay type: cell-based; details: for GI50: Homo sapiens, 216 h, 9-day treatment, average of n=2, read-out: MTAP-Deleted GI50
Experimental: as §1

BxPC-3 = experiment: Cell viability assay for additional cell lines: BxPC-3; assay type: cell-based; details: for GI50: Homo sapiens, 216 h, 9-day treatment, average of n=2, read-out: MTAP-Deleted GI50
Experimental: as §1

AsPC-1 = experiment: Cell viability assay for additional cell lines: AsPC-1; assay type: cell-based; details: Homo sapiens, ASPC1, 216 h, 9-day treatment, average of n=2, read-out: MTAP-WT GI50
Experimental: as §1, with “Thawed CellTiter-Glo® Buffer and lyophilized CellTiter-Glo® substrate and equilibrated to room temperature prior to use. The DMSO concentration was normalized to 0.137%. Transferred 100 ml CellTiter-Glo® Buffer into amber bottle containing CellTiter-Glo® substrate to reconstitute the lyophilized enzyme/substrate mixture. For Time Zero and 9-day treatment plates, removed all plating media. Added 100 μl fresh media/well. Added 100 μl CellTiter-Glo® Reagent per well. Mixed contents for 10 min on an orbital shaker to lyse cells.” left out, “Potency fold difference is defined as GI50 (AMG193)/GI50 (Ca-47) for the MTAP^del cell line of interest. The structure of AMG193 is as follows.” left out

Calu-6 = experiment: Cell viability assay for additional cell lines: Calu-6; assay type: cell-based; details: Homo sapiens, 216 h, 9-day treatment, average of n=2, read-out: MTAP-WT GI50
Experimental: as §1, with “Thawed CellTiter-Glo® Buffer and lyophilized CellTiter-Glo® substrate and equilibrated to room temperature prior to use. The DMSO concentration was normalized to 0.137%. Transferred 100 ml CellTiter-Glo® Buffer into amber bottle containing CellTiter-Glo® substrate to reconstitute the lyophilized enzyme/substrate mixture. For Time Zero and 9-day treatment plates, removed all plating media. Added 100 μl fresh media/well. Added 100 μl CellTiter-Glo® Reagent per well. Mixed contents for 10 min on an orbital shaker to lyse cells.” left out, “Potency fold difference is defined as GI50 (AMG193)/GI50 (Ca-47) for the MTAP^del cell line of interest. The structure of AMG193 is as follows.” left out

U-2 OS = experiment: Cell viability assay for additional cell lines: U-2 OS; assay type: cell-based; details: Homo sapiens, U2OS, 216 h, 9-day treatment, average of n=2, read-out: MTAP-WT GI50
Experimental: as §1, with “Thawed CellTiter-Glo® Buffer and lyophilized CellTiter-Glo® substrate and equilibrated to room temperature prior to use. The DMSO concentration was normalized to 0.137%. Transferred 100 ml CellTiter-Glo® Buffer into amber bottle containing CellTiter-Glo® substrate to reconstitute the lyophilized enzyme/substrate mixture. For Time Zero and 9-day treatment plates, removed all plating media. Added 100 μl fresh media/well. Added 100 μl CellTiter-Glo® Reagent per well. Mixed contents for 10 min on an orbital shaker to lyse cells.” left out, “Potency fold difference is defined as GI50 (AMG193)/GI50 (Ca-47) for the MTAP^del cell line of interest. The structure of AMG193 is as follows.” left out

Sprague-Dawley Rat PK = assay type: in vivo; details: for BPR: Blood plasma ratio; for clearance / half-life / Vd: IV 0.33 mg/Kg; for clearance: plasma clearance, read-out: Observed CLp (converted); for Fold IVIVc: [Observed CLp/[BPR]/[Predicted Hepatocyte CL]; for half-life / Vd: plasma; for Vd: read-out: Vss
Excerpt: The following abbreviations are defined as follows for table 5. BPR: Blood plasma ratio, CLp: plasma clearance.
Cell viability assay data for LU99, SW780, BxPC-3, Panc-1, AsPC-1, Calu-6 and U-2 OS for AMG-193 and example Ca-47 are provided in Table 4. The following abbreviations are defined as follows for table 5. BPR: Blood plasma ratio, CLp: plasma clearance. Fold IVIVc=[Observed CLp/[BPR]/[Predicted Hepatocyte CL]

GI50 (SW780) [µM]	GI50 (BxPC-3) [µM]	GI50 (AsPC-1) [µM]	GI50 (Calu-6) [µM]	BPR (Sprague-Dawley Rat PK)	clearance (Sprague-Dawley Rat PK) [L/h/kg]	Fold IVIVc (Sprague-Dawley Rat PK) [x]	half-life (Sprague-Dawley Rat PK) [h]	Vd (Sprague-Dawley Rat PK) [L/kg]	Compound	CC50 [1] [µM]	GI50 (LU99) [µM]	GI50 (U-2 OS) [µM]	Potency fold difference (LU99; GI50 (AMG193)/GI50 (Ca-47))	Potency fold difference (SW780; GI50 (AMG193)/GI50 (Ca-47))	Potency fold difference (BxPC-3; GI50 (AMG193)/GI50 (Ca-47))
0.096	0.068	> 10	7	0.95	2.26	1	1.1	1.82	Nc1nc2cnc(C(=O)N3CCOC[C@@H]3c3ccc(C(F)(F)F)cc3)cc2c2c1COC2 [AMG193, reference compound]	0.069	0.045	9.36	–	–	–
0.017	0.016	2.8	1.6	0.89	0.85	0.37	2.5	2.08	Nc1nc2cnc(C(=O)N3CCC[C@@H]4Oc5cc(C(F)(F)F)cc(F)c5[C@@H]43)cc2c2c1COC2 [Example Ca-47, (4-amino-1,3-dihydrofuro[3,4-c][1,7]naphthyridin-8-yl)((4aS,9bS)-9-fluoro-7-(trifluoromethyl)-3,4,4a,9b-tetrahydrobenzofuro[3,2-b]pyridin-1(2H)-yl)methanone]	0.014	0.009	2.3	5	5.6	4.3
